Experimental findings from PubChem BioAssay (NCI) are described below.

SMILES strings stand for the structures.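 Assay format: 96-well plates, 48-hour exposure. The concentration for 50% growth inhibition is given as GI50. The concentration for full growth arrest is given as TGI.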

Test systems include RPMI-8226 leukemia; COLO 205 colon; M14 melanoma; U251 CNS; SW-620 colon; MALME-3M melanoma; T-47D breast; MOLT-4 leukemia; ACHN renal; HCT-15 colon.
Holding throughout (experiment): inhibition of tumour cell growth, NCI panel, 48 h

Consider `COc1cc2c3c(n(CCCN4CCN(CCO)CC4)c(=O)c2cc1OC)-c1cc2c(cc1C3=O)OCO2`, for which the GI50 was 559 nM in the experiment on RPMI-8226 leukemia; 15.1 µM in the experiment on COLO 205 colon; 6230 nM in the experiment with M14 melanoma; over 33.7 µM in the experiment with U251 CNS; 8.37 µM in the experiment with SW-620 colon; 15.3 µM in the experiment on MALME-3M melanoma. The GI50 with T-47D breast is over 100 µM; with MOLT-4 leukemia, 89.9 nM; in the experiment on ACHN renal, 8540 nM; in the experiment on HCT-15 colon, 18100 nM. Besides, the TGI in the experiment on RPMI-8226 leukemia is 3.91 µM; in the experiment with COLO 205 colon, over 57.2 µM; with M14 melanoma, 19.5 µM; with U251 CNS it was over 48.6 µM; with SW-620 colon it was 24.7 µM; with MALME-3M melanoma, 31 µM. For the same compound, the TGI with T-47D breast is over 100 µM; in the experiment on MOLT-4 leukemia, 6.24 µM; in the experiment with ACHN renal, over 44.4 µM; in the experiment with HCT-15 colon, over 61.2 µM.

On to `COC(=O)CCc1c(/C=C2\N=C(c3ccc[nH]3)C=C2OC)[nH]c(C)c1C(=O)OCc1ccccc1`, for which the GI50 with RPMI-8226 leukemia is 343 nM; in the experiment on COLO 205 colon it was 0.341 µM; with M14 melanoma, 256 nM; in the experiment on U251 CNS, 0.36 µM; in the experiment on SW-620 colon, 0.304 µM; in the experiment with MALME-3M melanoma, 0.638 µM. For the same compound, the GI50 with T-47D breast is 0.235 µM; in the experiment on MOLT-4 leukemia, 230 nM; with ACHN renal, 297 nM; with HCT-15 colon, 177 nM. The TGI with RPMI-8226 leukemia came to 2.27 µM; in the experiment with COLO 205 colon, 2.03 µM; in the experiment on M14 melanoma, 0.784 µM; in the experiment with U251 CNS, 2.28 µM; with SW-620 colon, 3.03 µM; in the experiment with MALME-3M melanoma it was 2.12 µM. Further, the TGI was 1.45 µM in the experiment with T-47D breast, 5.1 µM in the experiment on MOLT-4 leukemia, 1.1 µM with ACHN renal and 1.53 µM in the experiment on HCT-15 colon.

Regarding `COc1ccc(CNC(=O)c2c(C)n([O-])c3cc(F)c(F)cc3[n+]2=O)cc1`, the GI50 is 6400 nM in the experiment on RPMI-8226 leukemia; 11.2 µM with COLO 205 colon; 12000 nM in the experiment with M14 melanoma; 12.8 µM with U251 CNS; 3.83 µM with SW-620 colon; 11.2 µM with MALME-3M melanoma. Also, the GI50 in the experiment on T-47D breast was 3.33 µM; in the experiment on MOLT-4 leukemia, 4610 nM; with ACHN renal, 16900 nM; with HCT-15 colon it was 1770 nM. The TGI in the experiment on RPMI-8226 leukemia was determined as 30.9 µM; in the experiment on COLO 205 colon, 24.3 µM; in the experiment with M14 melanoma, 24.4 µM; in the experiment on U251 CNS, 25.5 µM; in the experiment on SW-620 colon it was 13.1 µM; in the experiment with MALME-3M melanoma, 26.8 µM. Besides, the TGI in the experiment with T-47D breast turned out to be 16.1 µM; in the experiment with MOLT-4 leukemia, 21.2 µM; in the experiment with ACHN renal, 30.6 µM; in the experiment on HCT-15 colon it was 3.43 µM.

As to `CCC(=O)Oc1ccc(/C=N/NC(N)=S)nc1`, the GI50 with RPMI-8226 leukemia was 28500 nM; in the experiment with COLO 205 colon it was 27.5 µM; with M14 melanoma, 2010 nM; in the experiment with U251 CNS, 4.5 µM; in the experiment on SW-620 colon, 7.67 µM; with MALME-3M melanoma, 6.86 µM. The GI50 in the experiment on T-47D breast was 5.83 µM; with MOLT-4 leukemia, 3300 nM; in the experiment with ACHN renal, 1010 nM; in the experiment with HCT-15 colon, 6380 nM. Moreover, the TGI in the experiment on RPMI-8226 leukemia was over 100 µM; with COLO 205 colon, over 100 µM; with M14 melanoma, 5.59 µM; with U251 CNS, over 100 µM; in the experiment on SW-620 colon it was over 100 µM; in the experiment on MALME-3M melanoma, over 100 µM. Further, the TGI in the experiment on T-47D breast was over 100 µM; with MOLT-4 leukemia, over 100 µM; in the experiment on ACHN renal, 21 µM; in the experiment with HCT-15 colon, over 100 µM.

For the compound `COc1ccc2c(c1)NC(=O)CN2c1nc(C)nc2ccccc12`, the GI50 in the experiment on RPMI-8226 leukemia was 0.603 nM; with COLO 205 colon, 0.000322 µM; in the experiment on M14 melanoma, 0.336 nM; with U251 CNS, 0.000437 µM; in the experiment with SW-620 colon, 0.000487 µM; in the experiment with T-47D breast, 5.89 µM. The GI50 in the experiment with MOLT-4 leukemia was 0.605 nM; in the experiment with ACHN renal it was 0.926 nM; in the experiment with HCT-15 colon, 0.413 nM. Also, the TGI in the experiment on RPMI-8226 leukemia is over 100 µM; in the experiment on COLO 205 colon it was 0.0012 µM; in the experiment with M14 melanoma it was over 100 µM; in the experiment with U251 CNS, over 100 µM; in the experiment on SW-620 colon, over 100 µM; with MALME-3M melanoma it was over 100 µM. Further, the TGI in the experiment on T-47D breast, in the experiment on MOLT-4 leukemia, in the experiment on ACHN renal and in the experiment with HCT-15 colon was over 100 µM in each case.

Consider `COc1ccc(-c2cc(=O)c3cccnc3[nH]2)cc1`, for which the TGI was over 100 µM with RPMI-8226 leukemia; 52.5 µM in the experiment with COLO 205 colon; 95.6 µM in the experiment on M14 melanoma; over 100 µM in the experiment on U251 CNS; over 100 µM with SW-620 colon; over 100 µM with MALME-3M melanoma. Also, the TGI in the experiment on T-47D breast, in the experiment on MOLT-4 leukemia, with ACHN renal and with HCT-15 colon was over 100 µM throughout. The GI50 in the experiment with U251 CNS is 54.1 µM.

Consider `O=[N+]([O-])c1ccc2nc(=S)[nH]n2c1`, for which the TGI in the experiment with RPMI-8226 leukemia, in the experiment on COLO 205 colon, with M14 melanoma, in the experiment on U251 CNS, with SW-620 colon and in the experiment on MALME-3M melanoma was over 100 µM each time. In addition, the TGI in the experiment on T-47D breast, in the experiment on MOLT-4 leukemia, in the experiment on ACHN renal and with HCT-15 colon was over 100 µM in each case.
